The source of these data is the supplement of paper PMC10307832.

What all share (assay): relative viability (nuclei count vs DMSO), 5 days (fraction); higher = more cells survive
Compound in assay [1]: CN[C@@H]1C[C@H]2O[C@@](C)([C@@H]1OC)n1c3ccccc3c3c4c(c5c6ccccc6n2c5c31)C(=O)NC4 [Staurosporine] + O=C(CCCCCCC(=O)Nc1ccccc1)NO [Vorinostat] (partner 1 µM)
An outline of the steps:
(§1)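 For relative viability, nuclei counts in treated wells were divided by those in vehicle wells. Lung cancer cell lines had been pin-tool dosed in 1536-well plates the day after seeding and cultured for 5 days, then fixed and stained in one step (final 0.05% Triton X-100, 1% formaldehyde, 1 ug/ml Hoechst) and imaged at 4×. Doses were one drug alone or a fixed anchor-drug dose plus five library-drug doses (not always all listed) in √10 steps, and values are duplicate-plate medians.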

Compound in assay [2]: O=c1[nH]cc(F)c(=O)[nH]1 [5-Fluorouracil] + O=C(CCCCCCC(=O)Nc1ccccc1)NO [Vorinostat] (partner 1 µM)
In a few lines: as §1

Compound in the assay “Sulindac + Luminespib”: CC1=C(CC(=O)O)c2cc(F)ccc2/C1=C\c1ccc([S+](C)[O-])cc1 [Sulindac] + CCNC(=O)c1noc(-c2cc(C(C)C)c(O)cc2O)c1-c1ccc(CN2CCOCC2)cc1 [Luminespib] (partner 0.01 µM)
In a few lines:
as §1

Compound in assay [3]: O=c1[nH]cc(F)c(=O)[nH]1 [5-Fluorouracil] + CS(=O)(=O)N1CCN(Cc2cc3nc(-c4cccc5[nH]ncc45)nc(N4CCOCC4)c3s2)CC1 [Pictilisib] (partner 1 µM)
An outline of the steps:
as §1

As to PC-3 [JPC-3], the relative viability is 0.351 in assay [1] (first compound 0.005 µM); 0.306 in assay [1] (first compound 0.01581 µM); 0.396 in assay [1] (first compound 0.05 µM); 0.297 in assay [1] (first compound 0.1581 µM); 0.376 in assay [1] (first compound 0.5 µM); 0.752 in assay [2] (first compound 0.02 µM). In addition, the relative viability was 0.825 in assay [2] (first compound 0.2 µM); 0.871 in assay [2] (first compound 0.6325 µM); 0.522 in assay [2] (first compound 2 µM); 0.663 with Sulindac + Luminespib (first compound 0.08 µM); 0.799 in the assay with Sulindac + Luminespib (first compound 0.253 µM); 0.528 in the assay with Sulindac + Luminespib (first compound 0.8 µM). The relative viability in the assay with Sulindac + Luminespib (first compound 2.53 µM) was found to be 0.656; in the assay with Sulindac + Luminespib (first compound 8 µM), 0.771; in assay [3] (first compound 0.02 µM), 0.77; in assay [3] (first compound 0.2 µM) it was 0.757; in assay [3] (first compound 0.6325 µM), 0.796; in assay [3] (first compound 2 µM), 0.612.

For the cell line PC-14, the relative viability in assay [1] (first compound 0.005 µM) turned out to be 0.267; in assay [1] (first compound 0.01581 µM), 0.116; in assay [1] (first compound 0.05 µM) it was 0.0757; in assay [1] (first compound 0.1581 µM) it was 0.047; in assay [1] (first compound 0.5 µM) it was 0.0287; in assay [2] (first compound 0.02 µM) it was 0.82. Besides, the relative viability in assay [2] (first compound 0.2 µM) was found to be 0.635; in assay [2] (first compound 0.6325 µM) it was 0.623; in assay [2] (first compound 2 µM), 0.355; with Sulindac + Luminespib (first compound 0.08 µM) it was 0.164; with Sulindac + Luminespib (first compound 0.253 µM) it was 0.152; with Sulindac + Luminespib (first compound 0.8 µM), 0.15. Moreover, the relative viability in the assay with Sulindac + Luminespib (first compound 2.53 µM) stood at 0.152; in the assay with Sulindac + Luminespib (first compound 8 µM), 0.127; in assay [3] (first compound 0.02 µM), 0.711; in assay [3] (first compound 0.2 µM), 0.763; in assay [3] (first compound 0.6325 µM) it was 0.7; in assay [3] (first compound 2 µM), 0.415.

With RERF-LC-KJ, the relative viability in assay [1] (first compound 0.005 µM) worked out at 0.599; in assay [1] (first compound 0.01581 µM), 0.403; in assay [1] (first compound 0.05 µM), 0.302; in assay [1] (first compound 0.1581 µM), 0.197; in assay [1] (first compound 0.5 µM), 0.224; in assay [2] (first compound 0.02 µM), 0.741. Besides, the relative viability in assay [2] (first compound 0.2 µM) was 0.736; in assay [2] (first compound 0.6325 µM), 0.725; in assay [2] (first compound 2 µM) it was 0.56; with Sulindac + Luminespib (first compound 0.08 µM), 1.06; with Sulindac + Luminespib (first compound 0.253 µM) it was 1.47; with Sulindac + Luminespib (first compound 0.8 µM), 1.18. Further, the relative viability with Sulindac + Luminespib (first compound 2.53 µM) is 1.23; in the assay with Sulindac + Luminespib (first compound 8 µM), 1.64; in assay [3] (first compound 0.02 µM) it was 0.587; in assay [3] (first compound 0.2 µM), 0.593; in assay [3] (first compound 0.6325 µM), 0.604; in assay [3] (first compound 2 µM) it was 0.465.

For SK-LU-1, the relative viability stood at 0.265 in assay [1] (first compound 0.005 µM); 0.206 in assay [1] (first compound 0.01581 µM); 0.179 in assay [1] (first compound 0.05 µM); 0.164 in assay [1] (first compound 0.1581 µM); 0.148 in assay [1] (first compound 0.5 µM); 0.705 in assay [2] (first compound 0.02 µM). Further, the relative viability in assay [2] (first compound 0.2 µM) amounted to 0.885; in assay [2] (first compound 0.6325 µM), 0.744; in assay [2] (first compound 2 µM) it was 0.681; with Sulindac + Luminespib (first compound 0.08 µM), 0.193; with Sulindac + Luminespib (first compound 0.253 µM), 0.204; in the assay with Sulindac + Luminespib (first compound 0.8 µM), 0.175. In addition, the relative viability in the assay with Sulindac + Luminespib (first compound 2.53 µM) stood at 0.202; with Sulindac + Luminespib (first compound 8 µM), 0.215; in assay [3] (first compound 0.02 µM), 0.491; in assay [3] (first compound 0.2 µM), 0.558; in assay [3] (first compound 0.6325 µM) it was 0.549; in assay [3] (first compound 2 µM), 0.402.

As to SK-MES-1, the relative viability in assay [1] (first compound 0.005 µM) was 0.47; in assay [1] (first compound 0.01581 µM) it was 0.27; in assay [1] (first compound 0.05 µM) it was 0.18; in assay [1] (first compound 0.1581 µM), 0.154; in assay [1] (first compound 0.5 µM), 0.127; in assay [2] (first compound 0.02 µM), 1.2. In addition, the relative viability in assay [2] (first compound 0.2 µM) worked out at 0.404; in assay [2] (first compound 0.6325 µM) it was 0.306; in assay [2] (first compound 2 µM), 0.302; with Sulindac + Luminespib (first compound 0.08 µM), 0.875; in the assay with Sulindac + Luminespib (first compound 0.253 µM), 0.985; in the assay with Sulindac + Luminespib (first compound 0.8 µM), 0.78. Besides, the relative viability in the assay with Sulindac + Luminespib (first compound 2.53 µM) worked out at 0.735; in the assay with Sulindac + Luminespib (first compound 8 µM), 0.935; in assay [3] (first compound 0.02 µM), 0.34; in assay [3] (first compound 0.2 µM), 0.338; in assay [3] (first compound 0.6325 µM), 0.297; in assay [3] (first compound 2 µM), 0.196.

Turning to SW 1573, the relative viability in assay [1] (first compound 0.005 µM) was determined as 0.811; in assay [1] (first compound 0.01581 µM), 0.391; in assay [1] (first compound 0.05 µM) it was 0.152; in assay [1] (first compound 0.1581 µM), 0.0813; in assay [1] (first compound 0.5 µM), 0.0557; in assay [2] (first compound 0.02 µM) it was 0.873. Besides, the relative viability came out at 0.843 in assay [2] (first compound 0.2 µM); 0.778 in assay [2] (first compound 0.6325 µM); 0.466 in assay [2] (first compound 2 µM); 0.197 in the assay with Sulindac + Luminespib (first compound 0.08 µM); 0.25 in the assay with Sulindac + Luminespib (first compound 0.253 µM); 0.242 in the assay with Sulindac + Luminespib (first compound 0.8 µM). Also, the relative viability turned out to be 0.293 with Sulindac + Luminespib (first compound 2.53 µM); 0.284 in the assay with Sulindac + Luminespib (first compound 8 µM); 0.597 in assay [3] (first compound 0.2 µM); 0.519 in assay [3] (first compound 0.6325 µM); 0.328 in assay [3] (first compound 2 µM).
